Measured values taken from patent US8193378B2, “2H-chromene compound and derivative thereof” (Astellas Pharma Inc., priority 2008, dated 2012).
Where two headings read alike, the source gives them in different places.

Tests used:
human S1P1 [1] = biological target: T1, human S1P1 (Homo sapiens, UniProt P21453); test: GTP[γ-35S] binding assay using membrane of human S1P1 expressing cell (Test Example 1, Method 1); type: biochemical; conditions: method 1, GTP[γ-35S] binding, membrane of human S1P1 expressing CHO cell (values without *); read-out: A: EC50, in vitro S1P1 agonist action
T1 construct: expressed in transfected cells; membrane fraction used
Method: (§1) Evaluation of In Vitro S1P1 Receptor Agonist Activity in Biological Body
(Method 1) Method for Evaluation on Receptor Agonist Action by GTP[γ-^35S] Binding Assay Using Membrane of Human S1P1 Expressing Cell
The in vitro S1P1 agonist action of the compound of the present invention was evaluated by the increase in the functional binding activity of GTP[γ-^35S] to G-protein using the membrane of a human S1P1 expressing cell. A cDNA encoding a human S1P1 was cloned from a human colorectal cDNA library and introduced to an expression vector pcDNA3.1 to construct a S1P1-pcDNA3.1. Then, by Lipofectamine 2000 (GIBCO), the S1P1-pcDNA3.1 was transfected into a CHO cell, and cultured in a Ham's F-12 culture medium containing 10% fetal bovine serum, 100 U/mL penicillin, 100 μg/mL streptomycin, and 1 mg/mL G418 disulfate, to obtain a stable, G418-resistant strain. The cultured human S1P1 expressing cells were isolated in a 1 mM EDTA.2Na-containing PBS, and disrupted under ice-cooling by a homogenizer made of glass in a 1 mM Tris HCl (pH 7.4) buffer solution containing 0.1 mM EDTA and a protein inhibitor. It was centrifuged at […], and a supernatant was further centrifuged at 4° C. for 60 min at 100,000×g, and suspended in a 10 mM Tris HCl (pH 7.4) buffer solution containing 1 mM EDTA to purify the membrane. The obtained membrane (0.13 mg/mL) and […] GTP[γ-^35S] […] The filter plate was dried at 50° C. for 60 min, and Microscinti-o (Packard) was added thereto for measurement by a liquids scintillation counter for a microplate (Packard, TOP count). For evaluation of the human S1P1 agonist action of the compound of the present invention and the comparative compound, the percentages with the rate of a maximum reaction to make the GTP[γ-^35S] bonds saturated in the presence of the compound being set at 100%, and the rate of the reaction of the GTP[γ-^35S] bonds in the absence of the compound being set at 0% were used, a non-linear regression curve was plotted, and a concentration to cause an agonist action operating 50% of the maximum reaction was defined as an EC50 value (nM).

[2] = tested on: peripheral blood lymphocytes; test: Reduction of number of peripheral blood lymphocytes in rat (Test Example 2); type: in vivo; conditions: Lymphocyte, male Lewis rats, oral
Method: Evaluation of Reduction of Number of Peripheral Blood Lymphocytes in Rat
The action on the peripheral blood lymphocytes were evaluated using rats. 6- to 10-week-old male Lewis rats (Japan Charles River Laboratories Japan, Inc.) were randomly divided into groups (n=3), and the compound of the present invention was suspended in 0.5% methyl cellulose-containing distilled water, and orally administered with a sonde. At 4 hours or 24 hours after administration, 0.2 ml of blood was collected from the ocular fundus under ether anesthesia. To the blood sample were immediately added EDTA.4K and heparin to prevent clotting, and the number of the lymphocytes in blood was measured with an automatic hematocyte analyzer (Sysmex Corp.; XT-2000i). For the reduction of the number of the lymphocytes in peripheral blood by the compound of the present invention, the percentage with the number of the lymphocytes in groups administered with 0.5% methyl cellulose-containing distilled water being set at 100%, as performed at the same time, were used, and the dose to cause 50% reduction of the number of the lymphocytes in the peripheral blood by administration of the compound of the present invention was defined as an ED50 value (mg/kg).

human S1P1 [3] = biological target: T1, human S1P1; test: Ca2+ influx assay using human S1P1 expressing cell (Test Example 1, Method 2); type: cell-based; conditions: method 2, Ca2+ influx, human S1P1 expressing CHO cell (values with *); read-out: A: EC50, in vitro S1P1 agonist action (value with *)
Method: as §1
(Method 2) Method for Evaluation of Receptor Agonist Action by Ca^2+ Influx Assay Using Human S1P1 Expressing Cell
The in vitro S1P1 agonist action of the compound of the present invention was evaluated by the increase in the Ca^2+ concentration in a human S1P1 expressing cell. A cDNA encoding a human S1P1 was cloned from a human colorectal cDNA library and introduced to an expression vector pcDNA3.1 to construct a S1P1-pcDNA3.1. Then, by Lipofectamine 2000 (GIBCO), the S1P1-pcDNA3.1 was transfected into a CHO cell, and cultured in a Ham's F-12 culture medium containing 10% fetal bovine serum, 100 U/mL penicillin, 100 μg/mL streptomycin, and 1 mg/mL G418 disulfate, to obtain a stable, G418-resistant strain. The cultured human S1P1 expressing cells were isolated in a 1 mM EDTA.2Na-containing PBS and suspended in a Ham's F-12 culture medium containing 10% fetal bovine serum, 100 U/mL penicillin, and 100 μg/mL streptomycin. This cell suspension was dispensed to a 96-well plate at 50000 cells/well, and cultured at a CO2 incubator (5% CO2, 37° C.) overnight. The culture medium was replaced with a calcium-sensitive fluorescent reagent (FLIPR (registered trademark) calcium 3 assay kit, molecular device)-containing loading buffer (Hank's balance salt solution, 20 mM HEPES, 2.5 mM probenecid) and left stand at a CO2 incubator (5% CO2, 37° C.) for 1 hour. The plate was set at a Functional Drug Screening System FDSS6000 (Hamamatsu Photonics K. K.), and persistently measured 124 times every 1.02 second at an excitation wavelength of 480 nm. The test compound (final concentration 10^−12 to 10^−5 M) was added at the same time as the 12th measurement, and the change in the Ca^2+ concentration in cells was evaluated by the change in the fluorescent strength. For evaluation of the human S1P1 agonist action of the compound of the present invention and the comparative compound, the percentages with the rate of a maximum reaction to make the increase in the Ca^2+ concentration in cells saturated after the addition of the compound being set at 100% and the rate of the increase in the Ca^2+ concentration in cells by the addition of a vehicle alone being set at 0% were used, a non-linear regression curve was plotted, and a concentration to cause an agonist action operating 50% of the maximum reaction was defined as an EC50 value (nM).

[4] = 4 hours after administration, read-out: B: ED50 4 h, reduction of number of lymphocytes in peripheral blood
[5] = 24 hours after administration, read-out: B: ED50 24 h, reduction of number of lymphocytes in peripheral blood

T1 sequence (P21453 whole entry): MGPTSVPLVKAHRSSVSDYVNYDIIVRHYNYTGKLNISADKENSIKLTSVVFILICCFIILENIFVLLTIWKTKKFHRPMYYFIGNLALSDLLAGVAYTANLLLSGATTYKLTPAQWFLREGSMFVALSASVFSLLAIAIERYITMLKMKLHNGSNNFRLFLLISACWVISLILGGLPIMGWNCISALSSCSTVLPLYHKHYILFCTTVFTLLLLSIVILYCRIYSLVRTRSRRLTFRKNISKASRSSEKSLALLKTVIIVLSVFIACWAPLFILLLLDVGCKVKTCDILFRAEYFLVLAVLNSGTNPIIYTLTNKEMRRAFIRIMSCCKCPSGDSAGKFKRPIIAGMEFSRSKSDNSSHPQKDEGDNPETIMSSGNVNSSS

EC50 (human S1P1 [1]) [nM]	EC50 (human S1P1 [3]) [nM]	Structure (SMILES)	ED50 [2, 4] [mg/kg]	ED50 [2, 5] [mg/kg]
10		CC1(C(=O)O)CCN(CC2=Cc3c(F)cc(OCc4cc(-c5ccccc5)c(C(F)(F)F)s4)cc3OC2)C1 (stereo not shown) [Ex 66]	0.21	
6.2		O=C(O)C1CN(CC2=Cc3ccc(OCc4cc(-c5ccccc5)c(Br)s4)cc3OC2)C1 [Ex 43]	0.26	
9.4		Cc1c(OCc2ccc(C(F)(F)F)cc2C(F)(F)F)ccc2c1OCC(CN1CCC(C(=O)O)C1)=C2.Cl (stereo not shown) [Ex 137]	0.11	
	5.5	C[C@H](Oc1ncc(COc2ccc3c(c2)OCC(CN2CCC=C(C(=O)O)C2)=C3)cc1Cl)C(F)(F)F.Cl [Ex 183]		0.21
5.6		O=C(O)C1(F)CCN(CC2=Cc3c(F)cc(OCc4cc(-c5ccccc5)c(C(F)(F)F)s4)cc3OC2)C1 (stereo not shown) [Ex 74]	0.59	
6.1		CC1(C(=O)O)CCN(CC2=Cc3c(F)cc(OCc4ccc(-n5cccc5)c(C(F)(F)F)c4)cc3OC2)C1 (stereo not shown) [Ex 89]	0.16	
1.7		O=C(O)C1CN(CC2=C(Cl)c3ccc(OCc4ccc(C(F)(F)F)cc4C(F)(F)F)cc3OC2)C1 [Ex 25]	0.013	
2		O=C(O)C1CN(CC2=Cc3c(F)cc(OCc4ccc(C(F)(F)F)cc4C(F)(F)F)cc3OC2)C1 [Ex 34]	0.01	
	9	Cl.O=C(O)C1CCN(CC2=Cc3ccc(OCc4ccc(OCC(F)(F)F)c(C(F)(F)F)c4)cc3OC2)CC1 [Ex 171]		0.14
	7.8	Cl.O=C(O)C1=CCCN(CC2=Cc3ccc(OCc4ccc(C5CCCC5)c(C(F)(F)F)c4)cc3OC2)C1 [Ex 216]		0.25
1.2		CCCc1ccc(COc2ccc3c(c2)OCC(CN2CCC(C(=O)O)C2)=C3)c(OC)c1 (stereo not shown) [Ex 31]	0.065	
8.7		C[C@H](Oc1ccc(COc2ccc3c(c2)OCC(CN2CCC=C(C(=O)O)C2)=C3)cc1Cl)C(F)(F)F.Cl [Ex 149]		0.12
2.5		O=C(O)C1CCN(CC2=Cc3c(F)cc(OCc4ccc(-c5ccccc5)c(C(F)(F)F)c4)cc3OC2)C1 (stereo not shown) [Ex 62]	0.21	
	16	C[C@H](Oc1ccc(COc2ccc3c(c2)OCC(CN2CCC[C@@H](C(=O)O)C2)=C3)cc1C(F)(F)F)C(F)(F)F.Cl [Ex 156, (3R)-1-[(7-{[3-(trifluoromethyl)-4-{[(2S)-1,1,1-trifluoropropan-2-yl]oxy}benzyl]oxy}-2H-chromen-3-yl)methyl]piperidine-3-carboxylic acid hydrochloride]		0.086
1.7		CS(=O)(=O)NC(=O)C1CCN(CC2=Cc3c(F)cc(OCc4ccc(C(F)(F)F)cc4C(F)(F)F)cc3OC2)C1.Cl (stereo not shown) [Ex 1, 1-[(7-{[2,4-bis(trifluoromethyl)benzyl]oxy}-5-fluoro-2H-chromen-3-yl)methyl]-N-(methylsulfonyl)pyrrolidine-3-carboxamide hydrochloride]	0.016	
2.3		CCc1sc(COc2cc(F)c3c(c2)OCC(CN2CCC(C(=O)O)C2)=C3)cc1-c1ccccc1 (stereo not shown) [Ex 56]	0.067	
6.3		CC1CN(CC2=Cc3c(F)cc(OCc4cc(-c5ccccc5)c(C(F)(F)F)s4)cc3OC2)CC1C(=O)O (stereo not shown) [Ex 69]	0.087	

EC50 (human S1P1 [1]) [nM]	EC50 (human S1P1 [3]) [nM]	Structure (SMILES)	ED50 [2, 4] [mg/kg]	ED50 [2, 5] [mg/kg]
5.9		C[C@H](Oc1ccc(COc2cc(F)c3c(c2)OCC(CN2CCC=C(C(=O)O)C2)=C3)cc1C(F)(F)F)C(F)(F)F.Cl [Ex 141]	0.099	
5.4		O=C(O)[C@H]1CCN(CC2=Cc3c(F)cc(OCc4ccc(-n5cccc5)c(C(F)(F)F)c4)cc3OC2)C1 [Ex 109]	0.26	
1.5		Cl.O=C(O)C1CCN(CC2=Cc3c(F)cc(OCc4ccc(C(F)(F)F)cc4C(F)(F)F)cc3OC2)C1 (stereo not shown) [Ex 45]	0.1	
22		Cl.O=C(O)C1CN(CC2=Cc3ccc(C#CCCc4ccccc4)cc3OC2)C1 [Ex 132]	0.16	
	1.1	Cl.O=C(O)[C@@H]1CCCN(CC2=Cc3c(F)cc(OCc4ccc(OC(CF)CF)c(Cl)c4)cc3OC2)C1 [Ex 223]		0.32
	1.1	Cl.O=C(O)[C@@H]1CCCN(CC2=Cc3c(F)cc(OCc4ccc(OC(CF)CF)c(C(F)(F)F)c4)cc3OC2)C1 [Ex 212]		0.21
	1.1	CC(C)Oc1ccc(COc2ccc3c(c2)OCC(CN2CCC=C(C(=O)O)C2)=C3)cc1Cl.Cl [Ex 151]		0.35
	6.3	CS(=O)(=O)NC(=O)[C@@H]1CCCN(CC2=Cc3c(F)cc(OCc4ccc(OC(CF)CF)c(C(F)(F)F)c4)cc3OC2)C1.Cl [Ex 152]		0.28
4.6		CC1(C(=O)O)CN(CC2=Cc3c(F)cc(OCc4cc(-c5ccccc5)c(C(F)(F)F)s4)cc3OC2)C1 [Ex 81]	0.25	
		C[C@H](Oc1ccc(COc2cc(F)c3c(c2)OCC(CN2CCC=C(C(=O)O)C2)=C3)cc1Cl)C(F)(F)F.Cl [Ex 144]	0.16	
	0.68	Cl.O=C(O)C1=CCN(CC2=Cc3ccc(OCc4ccc(OC(CF)CF)c(Cl)c4)cc3OC2)CC1 [Ex 181]		0.29
		Cl.O=C(O)C1=CCCN(CC2=Cc3c(F)cc(OCc4ccc(OC(CF)CF)c(Cl)c4)cc3OC2)C1 [Ex 143]	0.32	
8.5		CC1(C(=O)O)CN(CC2=Cc3ccc(OCc4ccc(-n5cccc5)c(C(F)(F)F)c4)cc3OC2)C1 [Ex 116]	0.1	
3.7		Cl.O=C(O)C1CCN(CC2=Cc3ccc(OCc4ccc(C(F)(F)F)cc4C(F)(F)F)cc3OC2)C1 (stereo not shown) [Ex 44]	0.37	
55		CC(C)Oc1ccc(COc2ccc3c(c2)OCC(CN2CCC=C(C(=O)O)C2)=C3)cc1C(F)(F)F.Cl [Ex 178]		0.12
11		O=C(O)C1=CCCN(CC2=Cc3c(F)cc(OCc4ccc(C(F)(F)F)cc4C(F)(F)F)cc3OC2)C1 [Ex 85]	0.19	
